Experimental data as given in PubChem BioAssay AID330 (DTP/NCI, 2004).
“And” between values parts separate entries of the source, which are not always exact repeats. Equal entries are not always repeated. Inconclusive results and toxic doses are left out. The calls were made as follows: active = survival T/C of 150% or more; inactive = T/C below 125% in these data.

Test system: P388 leukemia ip, CD2F1 mice, survival T/C
Test: NCI In Vivo Anticancer Drug Screen. Data for tumor model P388 Leukemia (intraperitoneal) in CD2F1 (CDF1) mice
Settings: endpoint: median survival time, higher = longer survival
In short: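 Mice carrying the transplanted tumor received test compound or vehicle. Survival was recorded in each group, and the value is the treated-group measurement divided by that of the vehicle-treated control group.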

[1] = dose: 50.0 mg/kg/injection, schedule: Q01DX009 (ip), vehicle: Klucel (hydroxypropylcellulose) (HPC)
[2] = dose: 100.0 mg/kg/injection, schedule: Q01DX009 (ip), vehicle: Klucel (hydroxypropylcellulose) (HPC)
[3] = dose: 200.0 mg/kg/injection, schedule: Q01DX009 (ip), vehicle: Klucel (hydroxypropylcellulose) (HPC)
[4] = dose: 50.0 mg/kg/injection, schedule: Q01DX005 (ip), vehicle: Klucel (hydroxypropylcellulose) (HPC)
[5] = dose: 100.0 mg/kg/injection, schedule: Q01DX005 (ip), vehicle: Klucel (hydroxypropylcellulose) (HPC)
[6] = dose: 200.0 mg/kg/injection, schedule: Q01DX005 (ip), vehicle: Klucel (hydroxypropylcellulose) (HPC)
[7] = dose: 12.5 mg/kg/injection, schedule: Q01DX009 (ip), vehicle: saline with Tween-80
[8] = dose: 25.0 mg/kg/injection, schedule: Q01DX009 (ip), vehicle: saline with Tween-80
[9] = dose: 50.0 mg/kg/injection, schedule: Q01DX009 (ip), vehicle: saline with Tween-80
[10] = dose: 50.0 mg/kg/injection, schedule: Q01DX009 (ip), vehicle: saline
[11] = dose: 100.0 mg/kg/injection, schedule: Q01DX009 (ip), vehicle: saline
[12] = dose: 200.0 mg/kg/injection, schedule: Q01DX009 (ip), vehicle: saline
[13] = dose: 50.0 mg/kg/injection, schedule: Q01DX005 (ip), vehicle: saline with Tween-80
[14] = dose: 100.0 mg/kg/injection, schedule: Q01DX005 (ip), vehicle: saline with Tween-80
[15] = dose: 200.0 mg/kg/injection, schedule: Q01DX005 (ip), vehicle: saline with Tween-80

Measured: T/C

CN(C)CC[CH2][Sn]([CH3])([Br])[Br]
inactive: dose: 1.56 mg/kg/injection, schedule: Q01DX009 (ip), vehicle: saline 100 % of control and 101 % of control

O=[N+]([O-])c1ccc(Sc2ncnc3nc[nH]c23)c2nonc12
inactive: dose: 0.78 mg/kg/injection, schedule: Q01DX009 (ip), vehicle: Klucel (hydroxypropylcellulose) (HPC) 105 % of control | dose: 1.56 mg/kg/injection, schedule: Q01DX009 (ip), vehicle: Klucel (hydroxypropylcellulose) (HPC) 109 % of control and 86 % of control | dose: 3.12 mg/kg/injection, schedule: Q01DX009 (ip), vehicle: Klucel (hydroxypropylcellulose) (HPC) 99 % of control and 104 % of control | dose: 6.25 mg/kg/injection, schedule: Q01DX009 (ip), vehicle: Klucel (hydroxypropylcellulose) (HPC) 105 % of control and 98 % of control | dose: 12.5 mg/kg/injection, schedule: Q01DX009 (ip), vehicle: Klucel (hydroxypropylcellulose) (HPC) 113 % of control and 116 % of control and 122 % of control | dose: 25.0 mg/kg/injection, schedule: Q01DX009 (ip), vehicle: Klucel (hydroxypropylcellulose) (HPC) 112 % of control

CCOC(=O)c1c(N)sc2c1CCC2
inactive: dose: 100.0 mg/kg/injection, schedule: Q01DX001 (ip), vehicle: saline sonified 100 % of control | dose: 200.0 mg/kg/injection, schedule: Q01DX001 (ip), vehicle: saline sonified 95 % of control | dose: 400.0 mg/kg/injection, schedule: Q01DX001 (ip), vehicle: saline sonified 100 % of control

CCOC(=O)Nc1cc(NC/C(=N/O)c2ccc(C(F)(F)F)cc2)c([N+](=O)[O-])c(N)n1
inactive: dose: 50.0 mg/kg/injection, schedule: Q01DX001 (ip), vehicle: saline with Tween-80 94 % of control | dose: 100.0 mg/kg/injection, schedule: Q01DX001 (ip), vehicle: saline with Tween-80 96 % of control

O=C(CC(c1ccccc1)C1c2ccccc2C(=O)c2ccccc21)c1ccccc1 (configuration not stated)
inactive: [1] 87 % of control | [2] 93 % of control | [3] 92 % of control | dose: 400.0 mg/kg/injection, schedule: Q01DX009 (ip), vehicle: Klucel (hydroxypropylcellulose) (HPC) 88 % of control

c1ccc(-c2c[s+]c(-c3ccccc3)s2)cc1
inactive: dose: 6.25 mg/kg/injection, schedule: Q01DX009 (ip), vehicle: distilled water + Tween-80 117 % of control | dose: 12.5 mg/kg/injection, schedule: Q01DX009 (ip), vehicle: distilled water + Tween-80 100 % of control | dose: 25.0 mg/kg/injection, schedule: Q01DX009 (ip), vehicle: distilled water + Tween-80 90 % of control | dose: 50.0 mg/kg/injection, schedule: Q01DX009 (ip), vehicle: distilled water + Tween-80 99 % of control | dose: 100.0 mg/kg/injection, schedule: Q01DX009 (ip), vehicle: distilled water + Tween-80 97 % of control

COC(=O)C1=C(C(=O)OC)P2(C)(C)N(C)C(=S)N2C1(c1ccccc1)c1ccccc1
inactive: [4] 102 % of control | [5] 94 % of control | [6] 94 % of control

O=C(NC1c2ccccc2CCc2ccccc21)C(F)(F)F
inactive: [7] 86 % of control | [8] 117 % of control | [9] 90 % of control | dose: 100.0 mg/kg/injection, schedule: Q01DX009 (ip), vehicle: saline with Tween-80 86 % of control | dose: 200.0 mg/kg/injection, schedule: Q01DX009 (ip), vehicle: saline with Tween-80 94 % of control

CC(C)(C)OC(=O)NC(CC(=O)O)C(=O)O (configuration not stated)
inactive: [10] 111 % of control | [11] 93 % of control | [12] 104 % of control

CC(C)NCC(O)COc1cccc2[nH]c3ccccc3c12 (configuration not stated)
inactive: [8] 99 % of control | [9] 96 % of control

Oc1c(CNCCCN2CCCC2)cc(Cl)c2cccnc12
inactive: dose: 12.5 mg/kg/injection, schedule: Q01DX009 (ip), vehicle: saline 102 % of control and 107 % of control | dose: 25.0 mg/kg/injection, schedule: Q01DX009 (ip), vehicle: saline 91 % of control and 96 % of control | [10] 88 % of control and 95 % of control | [11] 110 % of control and 112 % of control

CC(C)(C)N1C(=O)NCC1(C)C
inactive: [10] 105 % of control | [11] 100 % of control | [12] 98 % of control

COC(=O)c1[nH]c(=O)[nH]c(=O)c1N
inactive: dose: 25.0 mg/kg/injection, schedule: Q04DX003 (ip), vehicle: saline with Tween-80 100 % of control | dose: 50.0 mg/kg/injection, schedule: Q04DX003 (ip), vehicle: saline with Tween-80 101 % of control | dose: 100.0 mg/kg/injection, schedule: Q04DX003 (ip), vehicle: saline with Tween-80 100 % of control | dose: 200.0 mg/kg/injection, schedule: Q04DX003 (ip), vehicle: saline with Tween-80 102 % of control

CCOC(=O)c1ccc(N=NN2CN3CN(C2)CN(N=Nc2ccc(C(=O)OCC)cc2)C3)cc1
inactive: dose: 25.0 mg/kg/injection, schedule: Q04DX002 (ip), vehicle: Klucel (hydroxypropylcellulose) (HPC) 99 % of control | dose: 50.0 mg/kg/injection, schedule: Q04DX002 (ip), vehicle: Klucel (hydroxypropylcellulose) (HPC) 104 % of control | dose: 100.0 mg/kg/injection, schedule: Q04DX002 (ip), vehicle: Klucel (hydroxypropylcellulose) (HPC) 100 % of control and 87 % of control

COc1cccc(C2Nc3ccccc3C(=O)N2N2CCOCC2)c1 (configuration not stated)
inactive: [4] 100 % of control | [5] 94 % of control | [6] 96 % of control

O=C1c2ccccc2C(=O)C23OC12C1C=CC3CC1 (configuration not stated)
inactive: dose: 50.0 mg/kg/injection, schedule: Q01DX001 (ip), vehicle: Klucel (hydroxypropylcellulose) (HPC) 94 % of control | dose: 100.0 mg/kg/injection, schedule: Q01DX001 (ip), vehicle: Klucel (hydroxypropylcellulose) (HPC) 91 % of control | dose: 200.0 mg/kg/injection, schedule: Q01DX001 (ip), vehicle: Klucel (hydroxypropylcellulose) (HPC) 93 % of control

CC(=O)N(c1ccccc1)C1CCC2(C)C(=CCC3C2CCC2(C)C(C(C)CCCC(C)C)CCC32)C1 (configuration not stated)
inactive: dose: 100.0 mg/kg/injection, schedule: Q04DX003 (sc), vehicle: steriod suspending solution 100 % of control | dose: 200.0 mg/kg/injection, schedule: Q04DX003 (sc), vehicle: steriod suspending solution 100 % of control | dose: 400.0 mg/kg/injection, schedule: Q04DX003 (sc), vehicle: steriod suspending solution 104 % of control

CC1OC(CC(=O)O)Cc2c1c(O)c1c(O)cc(-c3cc(=O)c4c(=O)c5c(c(=O)c=4c3=O)CC(CC(=O)O)OC5C)c(O)c1c2O (configuration not stated)
inactive: dose: 6.25 mg/kg/injection, schedule: Q01DX009 (ip), vehicle: saline with Tween-80 100 % of control | [7] 102 % of control | [8] 103 % of control

C[C@]12CCC[C@@H](O)[C@H]1O2
inactive: dose: 100.0 mg/kg/injection, schedule: Q04DX003 (ip), vehicle: saline 104 % of control | dose: 200.0 mg/kg/injection, schedule: Q04DX003 (ip), vehicle: saline 103 % of control | dose: 400.0 mg/kg/injection, schedule: Q04DX003 (ip), vehicle: saline 109 % of control

O=c1c2sc3ccccc3c2ncn1CN1CCOCC1
inactive: [4] 112 % of control | [5] 121 % of control | [6] 118 % of control

C/C(=N\Nc1cc(C)nc2ccc(C)cc12)c1cn(C)n(-c2ccccc2)c1=O
inactive: [1] 97 % of control | [2] 86 % of control

COC(=O)c1cc(O)c(O)c(O)c1
inactive: [13] 105 % of control | [14] 108 % of control | [15] 119 % of control

CCN(CC)Cc1cc(N=Nc2cccc3ccccc23)c2ccccc2c1O
inactive: [1] 102 % of control | [2] 108 % of control | [3] 100 % of control

CCN(CC)CCCC(C)N1CC2CCCCC2C1 (configuration not stated)
inactive: [13] 106 % of control | [14] 108 % of control | [15] 107 % of control
